Results: patent US4824834A, “Pyrazolotriazine compounds” (Otsuka Pharmaceutical Company, Limited, priority 1986, dated 1989)

Legend:
Xanthine oxidase = target: T1, Xanthine oxidase (Mus musculus, UniProt Q00519); assay: Xanthine oxidase inhibition (in vitro), mouse small intestine xanthine oxidase solution, HPLC of uric acid; format: biochemical, mouse (ICR strain mice; conditions: xanthine substrate, incubated at 37° C. for 5 minutes; HPLC UV 292 nm
T1 construct: The small intestine was homogenized in 4-fold volume of cooled phosphate buffered saline solution (PBS) and then centrifuged; from tissue; host or cells: small intestine of ICR strain mice; dialysed supernatant of a 105,000 g centrifugation
T1 sequence (Q00519 whole entry): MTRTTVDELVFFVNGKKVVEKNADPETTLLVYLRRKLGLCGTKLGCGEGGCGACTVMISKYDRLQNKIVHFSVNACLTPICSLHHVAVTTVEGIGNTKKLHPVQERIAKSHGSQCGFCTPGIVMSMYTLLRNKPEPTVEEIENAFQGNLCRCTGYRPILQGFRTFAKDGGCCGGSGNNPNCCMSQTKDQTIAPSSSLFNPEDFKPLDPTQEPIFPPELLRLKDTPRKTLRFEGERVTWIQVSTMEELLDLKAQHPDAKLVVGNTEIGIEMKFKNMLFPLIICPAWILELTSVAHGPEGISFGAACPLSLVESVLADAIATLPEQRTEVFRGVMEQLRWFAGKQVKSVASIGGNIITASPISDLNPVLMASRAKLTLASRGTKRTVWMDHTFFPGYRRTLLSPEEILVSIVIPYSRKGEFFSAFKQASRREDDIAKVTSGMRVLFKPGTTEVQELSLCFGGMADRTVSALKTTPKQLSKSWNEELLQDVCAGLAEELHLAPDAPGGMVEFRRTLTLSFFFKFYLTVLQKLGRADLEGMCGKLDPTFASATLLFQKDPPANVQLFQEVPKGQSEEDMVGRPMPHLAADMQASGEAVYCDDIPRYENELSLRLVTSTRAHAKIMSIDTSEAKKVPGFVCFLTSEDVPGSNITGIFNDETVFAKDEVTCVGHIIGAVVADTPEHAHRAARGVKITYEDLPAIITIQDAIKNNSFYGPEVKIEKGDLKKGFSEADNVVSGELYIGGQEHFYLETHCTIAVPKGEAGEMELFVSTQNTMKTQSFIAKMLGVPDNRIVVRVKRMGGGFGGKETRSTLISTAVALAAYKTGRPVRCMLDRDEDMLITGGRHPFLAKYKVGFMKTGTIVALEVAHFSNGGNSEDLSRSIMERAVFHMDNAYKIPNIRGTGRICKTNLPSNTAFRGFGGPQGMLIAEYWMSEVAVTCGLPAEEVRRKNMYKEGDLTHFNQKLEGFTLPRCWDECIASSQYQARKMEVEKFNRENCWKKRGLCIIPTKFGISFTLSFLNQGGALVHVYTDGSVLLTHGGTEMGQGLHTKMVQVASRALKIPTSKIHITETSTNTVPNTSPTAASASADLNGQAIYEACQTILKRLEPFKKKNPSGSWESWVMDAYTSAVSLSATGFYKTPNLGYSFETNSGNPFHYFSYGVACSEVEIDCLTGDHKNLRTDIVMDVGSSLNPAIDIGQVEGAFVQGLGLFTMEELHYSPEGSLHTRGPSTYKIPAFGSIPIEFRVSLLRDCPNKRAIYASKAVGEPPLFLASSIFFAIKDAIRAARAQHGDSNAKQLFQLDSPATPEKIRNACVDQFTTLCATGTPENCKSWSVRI
Method: (1) Preparation of Xanthine Oxidase Solution
ICR strain mice were decapitated and the small intestine of each mouse was rapidly perfused with cooled physiological saline solution and removed. The small intestine was homogenized in 4-fold volume of cooled phosphate buffered saline solution (PBS) and then centrifuged at 105,000 g for 60 minutes. The supernatant fluid was dialyzed overnight against PBS. The dialyzed solution thus prepared was stored at -20° C. until used.
(2) Preparation of the Solution Containing the Present Compound
The compound of this invention was dissolved in DMSO (200 μl) and 2N NaOH (100 μl), and then PBS was added to prepare a solution (25 ml) containing 10^-3 M of the compound of this invention. This solution was diluted with PBS to prepare solutions containing the compound in the concentration of 10^-4, 10^-5, 10^-6, 10^-7, 10^-8, 10^-9, 10^-10, and 10^-11 M, respectively.
(3) Method for the Measurement
The assay mixture, consisted of the composition mentioned below, was incubated at 37° C. for 5 minutes. The reaction was stopped by heating in boiling water for one minute. Twenty microliters of the supernatant was analyzed by high performance liquid chromatography (HPLC) under the conditions mentioned below.
Xanthine oxidase solution (diluted in 4-folds with PBS): 200 μl
Solution containing the present compound: 200 μl
Column: osmosil packed column (.phi. 4. mm×150 mm, 5C18×300)
(§1) Eluting solution: 10 mM phosphate buffer (pH 6.0)
(§2) Retention time: 2.4 minutes (uric acid)
(4) Percent Inhibition of the Compound Against Xanthine Oxidase
The percent inhibition was calculated by the following equation. [formula]
As to each of the solutions containing the present compound as prepared in the above (2), the percent inhibition was calculted, and IC50 values were obtained from a plot of the percent inhibition against the log of the concentration of the compound of this invention.

uric acid in serum = assay: Lowering effect of test compound on the level of uric acid in serum (in vivo, oral administration); design: species or system mouse (normal male ICR mice); conditions: Mus musculus, 4 hours after administration, male ICR mice, suspended in 0.5% CMC-Na, read-out: in vivo Lowering rate (%) of uric acid in serum (in 4 hours)
Method: Experiment 2 (In Vivo: Oral Administration)
(1) Animals, Method of Administration and Sampling of Serum
Normal male ICR mice (weighting about 30 g), were provided normal diet and tap water ad libitum. A test compound suspended in 0.5% CMC-Na was administered orally to the mice (each group: 6 mice) in a dose of 5 mg/kg.
(2) Measurement of Amount of Uric Acid in Serum
To the serum (200 μl) was added 10% perchloric acid (100 μl), and the mixture was centrifuged. To the supernatant fluid (100 μl) was added 0.2M Na2 HPO4 (200 μl), and the mixture (20 μl) was analyzed by HPLC to measure the amount of uric acid. The HPLC was carried out under the following conditions.
Column: Cosmosil packed column (.phi. 4.6 mm×150 mm, 5C18 -300)
as §1, §2
(3) Lowering Effect of Test Compound on the Level of Uric Acid in Serum
The lowering rate of uric acid in serum was calculated by the following equation. [formula]

IC50 (Xanthine oxidase) [nM] | Structure (SMILES) | inhibition in vivo at 5 mg/kg (uric acid in serum) [%]
2.2 | COC(=O)c1ccc(NS(=O)(=O)c2ccc(-c3cnn4c(O)ncnc34)cc2)cc1 [Example 105, 4-Hydroxy-8-[4-(4-methoxycarbonylphenylaminosulfonyl)phenyl]pyrazolo[1,5-a]-1,3,5-triazine] | 
52 | Cc1cc(-c2cnn3c(O)ncnc23)ccc1Br [Example 142, 8-(4-Bromo-3-methylphenyl)-4-hydroxypyrazolo[1,5-a]-1,3,5-triazine] | 
0.1 | CCc1ccc(NS(=O)(=O)c2ccc(-c3cnn4c(O)ncnc34)cc2)cc1 [Example 96, 8-[4-(4-Ethylphenylaminosulfonyl)phenyl]-4-hydroxypyrazolo[1,5-a]-1,3,5-triazine] | 
32 | CN(C)S(=O)(=O)c1ccc(-c2cnn3c(O)ncnc23)cc1Cl [Example 136, 8-(3-Chloro-4-dimethylaminosulfonylphenyl)-4-hydroxypyrazolo[1,5-a]-1,3,5-triazine] | 
64 | O=S(=O)(Nc1cccc(O)c1)c1ccc(-c2cnn3c(O)ncnc23)cc1 [Example 107, 4-Hydroxy-8-[4-(3-hydroxyphenylaminosulfonyl)phenyl]pyrazolo[1,5-a]-1,3,5-triazine] | 
310 | Cc1ccc(Sc2ccc(-c3cnn4c(O)ncnc34)cc2)cc1 [Example 21, 4-Hydroxy-8-[4-(4-methylphenylthio)phenyl]pyrazolo[1,5-a]-1,3,5-triazine] | 
3.6 | Cc1ccc(NS(=O)(=O)c2ccc(-c3cnn4c(O)ncnc34)cc2)cc1 [Example 95, 4-Hydroxy-8-[4-(4-methylphenylaminosulfonyl)phenyl]pyrazolo[1,5-a]-1,3,5-triazine] | 
3.6 | O=S(=O)(Nc1ccc(Cl)cc1)c1ccc(-c2cnn3c(O)ncnc23)cc1 [Example 109, 8-[4-(4-Chlorophenylaminosulfonyl)phenyl]-4hydroxypyrazolo[1,5-a]-1,3,5-triazine] | 
0.45 | CCc1cccc(NS(=O)(=O)c2ccc(-c3cnn4c(O)ncnc34)cc2)c1 [Example 97, 8-[4-(3-Ethylphenylaminosulfonyl)phenyl]-4-hydroxypyrazolo[1,5-a]-1,3,5-triazine] | 
50 | COc1cc(-c2cnn3c(O)ncnc23)ccc1[N+](=O)[O-] [Example 74, 4-Hydroxy-8-(3-methoxy-4-nitrophenyl)pyrazolo[1,5-a]-1,3,5-triazine] | 
2.7 | CSc1ccc(-c2cnn3c(O)ncnc23)cc1Br [Example 146, 8-(3-Bromo-4-methylthiophenyl)-4-hydroxypyrazolo[1,5-a]-1,3,5-triazine] | 47
10 | CSc1ccc(-c2cnn3c(O)ncnc23)cc1Cl [Example 43, 8-(3-Chloro-4-methylthiophenyl)-4-hydroxypyrazolo[1,5-a]-1,3,5-triazine] | 60.6
0.75 | CC(C)(C)c1ccc(NS(=O)(=O)c2ccc(-c3cnn4c(O)ncnc34)cc2)cc1 [Example 100, 8-[4-(4-t-Butylphenylaminosulfonyl)phenyl]-4hydroxypyrazolo[1,5-a]-1,3,5-triazine] | 
71 | CSc1ccc(-c2cnn3c(O)ncnc23)cc1C [Example 30, 4-Hydroxy-8-(3-methyl-4-methylthiophenyl)pyrazolo[1,5-a]-1,3,5-triazine] | 47
30 | CCSc1ccc(-c2cnn3c(O)ncnc23)cc1 [Example 17, 8-(4-Ethylthiophenyl)-4-hydroxypyrazolo[1,5-a]-1,3,5-triazine] | 
45 | CCc1cc(-c2cnn3c(O)ncnc23)ccc1SC [Example 39, 8-(3-Ethyl-4-methylthiophenyl)-4-hydroxypyrazolo[1,5-a]-1,3,5-triazine] | 
15 | Oc1ncnc2c(-c3cc(Cl)c(Cl)c(Cl)c3)cnn12 [Example 53, 4-Hydroxy-8-(3,4,5-trichlorophenyl)pyrazolo[1,5-a]-1,3,5-triazine] | 
 | Oc1ncnc2[nH]ncc12 [Allopurinol, 4-hydroxypyrazolo[3,4-d]pyrimidine, reference compound] | 34

IC50 (Xanthine oxidase) [nM] | Structure (SMILES) | inhibition in vivo at 5 mg/kg (uric acid in serum) [%]
2.4 | Cc1cc(-c2cnn3c(O)ncnc23)ccc1[S+]([O-])c1ccccc1 (stereo not shown) [Example 171, 4-Hydroxy-8-(3-methyl-4-phenylsulfinylphenyl)pyrazolo[1,5-a]-1,3,5-triazine] | 73.6
10 | CCSc1ccc(-c2cnn3c(O)ncnc23)cc1C [Example 31, 8-(4-Ethylthio-3-methylphenyl)-4-hydroxypyrazolo[1,5-a]-1,3,5-triazine] | 63.5
24 | CSc1ccc(-c2cnn3c(O)ncnc23)cc1SC [Example 41, 8-[(3,4-Bismethylthio)phenyl]-4-hydroxypyrazolo[1,5-a]-1,3,5-triazine] | 60.1
6.5 | COC(=O)c1ccc(NS(=O)(=O)c2ccc(-c3cnn4c(O)ncnc34)cc2)cc1O [Example 112] | 
53 | Oc1ncnc2c(-c3cc(Cl)c(OCc4ccccc4)c(Cl)c3)cnn12 [Example 52, 8-(4-Benzyloxy-3,5-dichlorophenyl)-4-hydroxypyrazolo[1,5-a]-1,3,5-triazine] | 
5 | Oc1ncnc2c(-c3ccc(Sc4ccccc4)c(Cl)c3)cnn12 [Example 167, 8-(3-Chloro-4-phenylthiophenyl)-4-hydroxypyrazolo[1,5-a]-1,3,5-triazine] | 
5.2 | O=C(c1ccccc1)c1ccc(-c2cnn3c(O)ncnc23)cc1 [Example 70, 8-(4-Benzoylphenyl)-4-hydroxypyrazolo[1,5-a]-1,3,5-triazine] | 
8 | [O-][S+](c1ccccc1)c1ccc(-c2cnn3c(O)ncnc23)cc1 (stereo not shown) [Example 170, 4-Hydroxy-8-(4-phenylsulfinylphenyl)pyrazolo[1,5-a]-1,3,5-triazine] | 57.2
54 | CC(O)c1ccc(NS(=O)(=O)c2ccc(-c3cnn4c(O)ncnc34)cc2)cc1 (stereo not drawn) [Example 101, 4-Hydroxy-8-[4-(4-α-hydroxyethylphenylaminosulfonyl)phenyl]pyrazolo[1,5-a]-1,3,5-triazine] | 
0.14 | CC(C)c1ccc(NS(=O)(=O)c2ccc(-c3cnn4c(O)ncnc34)cc2)cc1 [Example 99, 4-Hydroxy-8-[4-(4-isopropylphenylaminosulfonyl)phenyl]pyrazolo[1,5-a]-1,3,5-triazine] | 
18 | Cc1cc(-c2cnn3c(O)ncnc23)ccc1Sc1ccccc1 [Example 33, 4-Hydroxy-8-(3-methyl-4-phenylthiophenyl)pyrazolo[1,5-a]-1,3,5-triazine] | 62
160 | Oc1ncnc2c(-c3ccc(Sc4ccccc4)cc3)cnn12 [Example 19, 4-Hydroxy-8-(4-phenylthiophenyl)pyrazolo[1,5-a]-1,3,5-triazine] | 
39 | Cc1cc(-c2cnn3c(O)ncnc23)ccc1S(=O)(=O)N(C)C [Example 138, 8-(4-Dimethylaminosulfonyl-3-methylphenyl)-4hydroxypyrazolo[1,5-a]-1,3,5-triazine] | 
76 | O=S(=O)(NCc1cccs1)c1ccc(-c2cnn3c(O)ncnc23)cc1 [Example 134, 4-Hydroxy-8-[4-(2-thienylmethylaminosulfonyl)phenyl]pyrazolo[1,5-a]-1,3,5-triazine] | 
36 | Oc1ncnc2c(-c3ccc(Br)c(Cl)c3)cnn12 [Example 143, 8-(4-Bromo-3-chlorophenyl)-4-hydroxypyrazolo[1,5-a]-1,3,5-triazine] | 
40 | Cc1cc(-c2cnn3c(O)ncnc23)ccc1[N+](=O)[O-] [Example 73, 4-Hydroxy-8-(3-methyl-4-nitrophenyl)pyrazolo[1,5-a]-1,3,5-triazine] | 
34 | COC(=O)c1ccc(NS(=O)(=O)c2ccc(-c3cnn4c(O)ncnc34)cc2)cc1OC [Example 113, 4-Hydroxy-8-[4-(3-methoxy-4-methoxycarbonylphenylaminosulfonyl)phenyl]pyrazolo[1,5-a]-1,3,5-triazine] | 
